These are literature values, as cited in patent US20140148379A1, “Control of Unwanted Bacteria in Fermentation Systems with Bacteriocin” (priority 2012, published 2014).

In the data set the test system is Staphylococcus aureus. Conditions: nisin combined with the endolysin produced by Staphylococcal phage; contaminated milk.

Consider nisin, for which the effect of combination result is “strong synergistic effect”.
